According to ChEMBL document CHEMBL1201862, “PubChem BioAssay data set” (2004):
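Cultured in 96-well plates, cells were exposed to test compound for 48 hours across five concentrations. At the GI50, growth is halved.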 Calls of active or inactive are those of the source. Cut-off read from the data, not from the text of the source: active = GI50 up to about 1.1 µM and inactive = higher.

Assays:
Assay in all cases: NCI anticancer screen, dose series, 48 h
[1] = tested on: SK-OV-3
[2] = tested on: NCI-H522
[3] = tested on: SF-268
[4] = tested on: SF-295
[5] = tested on: MOLT-4
[6] = tested on: NCI-H23
[7] = tested on: UO-31
[8] = tested on: SK-MEL-5
[9] = tested on: PC-3
[10] = tested on: EKVX
[11] = tested on: COLO 205
[12] = tested on: UACC-62
[13] = tested on: MDA-MB-435
[14] = tested on: HOP-92
[15] = tested on: CAKI-1
[16] = tested on: CCRF-CEM
[17] = tested on: LOX IMVI
[18] = tested on: IGROV-1
[19] = tested on: OVCAR-4
[20] = tested on: KM12
[21] = tested on: A549
[22] = tested on: SK-MEL-28
[23] = tested on: MCF7
[24] = tested on: NCI-H460
[25] = tested on: M14
[26] = tested on: SNB-75
[27] = tested on: NCI/ADR-RES
[28] = tested on: SN12C
[29] = tested on: OVCAR-3
[30] = tested on: RPMI-8226
[31] = tested on: K562
[32] = tested on: Hs-578T
[33] = tested on: UACC-257
[34] = tested on: HT-29
[35] = tested on: MDA-MB-231
[36] = tested on: A498
[37] = tested on: TK-10
[38] = tested on: HOP-62
[39] = tested on: HL-60
[40] = tested on: SW-620
[41] = tested on: ACHN
[42] = tested on: HCT-15
[43] = tested on: NCI-H226
[44] = tested on: DU-145
[45] = tested on: HCT-116
[46] = tested on: Malme-3M
[47] = tested on: U-251
[48] = tested on: T47D
[49] = tested on: SNB-19
[50] = tested on: OVCAR-8
[51] = tested on: RXF 393
[52] = tested on: SK-MEL-2
[53] = tested on: MDA-N
[54] = tested on: SF-539
[55] = tested on: BT-549
[56] = tested on: SR
[57] = tested on: OVCAR-5
[58] = tested on: HCC 2998
[59] = tested on: 786-0
[60] = tested on: M19-MEL
[61] = tested on: DLD-1
[62] = tested on: SNB-78
[63] = tested on: DMS-273
[64] = tested on: LXFL 529
[65] = tested on: KM-20L2
[66] = tested on: DMS-114

Measured: GI50

O=C1C[C@H](Sc2ccccc2)C2(OCCO2)[C@H]2ON3CCC[C@@H]3[C@@H]12
active: [2] 0.321 µM | [5] 0.333 µM | [16] 0.127 µM | [17] 1.09 µM | [18] 0.9 µM | [29] 0.904 µM | [30] 0.306 µM | [34] 0.759 µM | [39] 1.06 µM | [40] 0.723 µM | [45] 0.841 µM | [50] 0.918 µM | [56] 0.286 µM
0.59 µM: [42]
inactive: [1] 3.13 µM | [3] 1.65 µM | [4] 3.79 µM | [6] 1.91 µM | [7] 1.58 µM | [8] 7.23 µM | [9] 2.48 µM | [10] 2.53 µM | [11] 1.66 µM | [12] 1.73 µM | [13] 1.67 µM | [14] 1.24 µM | [15] 2.29 µM | [19] 2.57 µM | [20] 1.36 µM | [21] 2.89 µM | [22] 2.49 µM | [23] 1.12 µM | [24] 2.92 µM | [25] 2.26 µM | [26] 3.66 µM | [27] 4.61 µM | [28] 1.69 µM | [31] 1.71 µM | [32] 3.73 µM | [33] 2.72 µM | [35] 3.33 µM | [36] 13.2 µM | [37] 3.61 µM | [38] 2.01 µM | [41] 2.1 µM | [43] 8.22 µM | [44] 2.61 µM | [46] 1.73 µM | [47] 1.88 µM | [48] 2.06 µM | [49] 5.18 µM | [51] 1.69 µM | [52] 3.75 µM | [53] 3.05 µM | [54] 1.2 µM | [55] 4.56 µM | [57] 3.01 µM | [58] 2.57 µM | [59] 1.21 µM

CN(C)c1cccc(-c2cc(O)c3ccccc3n2)c1
44.4 µM: [42]
inactive: [1] 68.1 µM | [2] 24.2 µM | [5] 61.5 µM | [6] 54.8 µM | [7] 47.6 µM | [10] > 100 µM | [11] 48.2 µM | [12] 42 µM | [16] 41.7 µM | [17] 71.4 µM | [60] 76.7 µM | [18] 80.9 µM | [20] 34.4 µM | [21] 57.3 µM | [22] 86.1 µM | [61] 26.8 µM | [24] 13.6 µM | [25] 43.3 µM | [28] 47.8 µM | [30] 34.8 µM | [31] > 10 µM | [33] 31.9 µM | [34] 25.2 µM | [62] 82 µM | [37] > 100 µM | [38] 53.7 µM | [39] 28.2 µM | [40] 37 µM | [41] > 100 µM | [63] 45.9 µM | [46] 31.7 µM | [47] 55.8 µM | [49] 39 µM | [50] 75.9 µM | [54] 30.4 µM | [56] 45.5 µM | [58] 40.4 µM | [59] 49.7 µM | [64] 57.7 µM

CCOC1c2cc(C(C)C)c(O)c(O)c2[C@@]23CCCC(C)(C)C2C1OC3=O (stereo partly specified)
inactive: [1] > 100 µM | [2] 30.6 µM | [3] > 100 µM | [4] > 100 µM | [5] 50 µM | [65] > 100 µM | [6] > 100 µM | [7] 35.8 µM | [8] 70.3 µM | [10] > 100 µM | [11] > 100 µM | [12] 83.2 µM | [15] > 100 µM | [16] 47.4 µM | [17] > 100 µM | [60] > 100 µM | [18] > 100 µM | [21] 82.4 µM | [22] > 100 µM | [61] 61.7 µM | [24] > 100 µM | [25] > 100 µM | [26] 47.8 µM | [28] 94 µM | [29] 84.5 µM | [30] 40.6 µM | [31] > 100 µM | [33] > 100 µM | [34] > 100 µM | [62] > 100 µM | [37] > 100 µM | [38] > 100 µM | [39] 93.1 µM | [40] > 100 µM | [41] 78 µM | [43] > 100 µM | [45] > 100 µM | [63] > 100 µM | [46] > 100 µM | [47] > 100 µM | [49] > 100 µM | [50] > 100 µM | [51] 30.3 µM | [52] > 100 µM | [54] > 100 µM | [66] 62.4 µM | [56] 61.4 µM | [57] > 100 µM | [58] > 100 µM | [59] > 100 µM | [64] > 100 µM
91 µM: [42]
